The test system of series [1] is Mycobacterium tuberculosis. The series can be described thus: Antimycobacterial activity against Mycobacterium tuberculosis after 5 days by MABA. Type of series: functional. The note with it: 120 h. In general terms: Resazurin is reduced to fluorescent resorufin, in cell work by metabolically active cells.
The subject of series [2] is Mycobacterium tuberculosis. The series can be described thus: Antimycobacterial activity against Mycobacterium tuberculosis ATCC 27294 by MABA. The class given is functional.
Series [3] relates to Mycolicibacterium smegmatis. As to the kind of experiment: Antimycobacterial activity against Mycobacterium smegmatis CMCC 93202. The class given is functional.
Series [4] concerns Mycolicibacterium smegmatis. The series can be described thus: Potency index, ratio of ciprofloxacin MIC to compound MIC for Mycobacterium smegmatis CMCC 93202. Type of series: functional.
The test system of series [5] is Mycolicibacterium smegmatis. As to the kind of experiment: Potency index, ratio of MIC for 8-OCH3 ciprofloxacin to MIC for test compound for Mycobacterium smegmatis CMCC 93202. Type of series: functional.
Series [6] relates to Mycolicibacterium smegmatis. The series can be described thus: Potency index, ratio of MIC for moxifloxacin to MIC for test compound for Mycobacterium smegmatis CMCC 93202. Type of series: functional.
Series [7] concerns Mycolicibacterium smegmatis. The series can be described thus: Potency index, ratio of MIC for rifampin to MIC for test compound for Mycobacterium smegmatis CMCC 93202. Type of series: functional.
The test system of series [8] is Mycobacterium tuberculosis. As to the kind of experiment: Antimycobacterial activity against Mycobacterium tuberculosis H37Rv […] by BACTEC MGIT method. Type of series: functional.
For series [9], the system named is Mycobacterium tuberculosis. The series can be described thus: Antimycobacterial activity against Mycobacterium tuberculosis H37Rv after 12 to 28 days by Lowenstein and Jensen method. The class given is functional.
A further series deals with Mycolicibacterium vaccae. The series can be described thus: Antimycobacterial activity against Mycolicibacterium vaccae 10670. Type of series: functional.
In series [10] the test system is Mycobacterium tuberculosis. As to the kind of experiment: Antimycobacterial activity against Mycobacterium tuberculosis H37Rv after 72 hrs by alamar blue dye-based broth dilution assay. The class given is functional.
The test system of series [11] is Mycobacterium tuberculosis. As to the kind of experiment: Antimycobacterial activity against Mycobacterium tuberculosis H37Rv by broth dilution assay. Type of series: functional. (In general: Dilution methods test growth across graded concentrations, often in twofold steps.)
Series [12] has as its system Mycobacterium tuberculosis. As to the kind of experiment: Antimycobacterial activity against Mycobacterium tuberculosis H37Rv by MABA. The class given is functional.
Series [13] deals with Mycobacterium tuberculosis. As to the kind of experiment: Growth inhibition of Mycobacterium tuberculosis H37Rv at 6.25 ug/ml by MABA method relative to control. Type of series: functional. The note with it: read-out: GI.
The test system of series [14] is Mycobacterium tuberculosis. As to the kind of experiment: Antimycobacterial activity against Mycobacterium tuberculosis H37Rv ATCC 27294 by BACTEC method. The class given is functional.
In series [15] the test system is Mycobacterium tuberculosis. As to the kind of experiment: Antimycobacterial activity against Mycobacterium tuberculosis H37Rv by BACTEC radiometric assay. The class given is functional.
Series [16] can be described thus: Cytotoxicity against African green monkey Vero cells by CellTiter 96 non-radioactive cell proliferation assay. The class given is cell-based. The note with it: chlorocebus sabaeus, read-out: LD50 (the source's name).
Series [17] is described as follows: Selectivity index, ratio of LD50 for African green monkey Vero cells to MIC>99 for Mycobacterium tuberculosis H37Rv. Type of series: toxicity. The conditions noted are these: read-out: Selectivity Index.

SMILES strings stand for the structures. ≈ marks a conversion by molar mass, not a printed value.

By MIC is commonly meant the least concentration at which growth counts as inhibited. What is called MIC99 is the lowest concentration that inhibits either 99% of growth or 99% of the strains tested, depending on the study.

The compound `Cc1cc(=O)oc2cc(OCc3cn(Cc4cc(=O)oc5ccc6ccccc6c45)nn3)ccc12` gave an MIC in [1] of 6.25 µg/mL (≈ 13.4 µM).
The same measure, in the same setting: the figure for `Cc1cc(=O)oc2cc(OCc3cn(Cc4cc(=O)oc5cc(Cl)ccc45)nn3)ccc12` is 6.25 µg/mL (≈ 13.9 µM).
In series [2], `O=C(N/N=C/c1cccc(O)c1)c1cc2ccccc2oc1=O` came in with an MIC of 50 to 100 µg/mL (≈ 162 to 324 µM).
In series [1], `Cc1cc(=O)oc2cc(OCc3cn(Cc4cc(=O)oc5ccc(Cl)cc45)nn3)ccc12` came in with an MIC of 6.25 µg/mL (≈ 13.9 µM).
Turning to `COc1ccc2cc(C(=O)CN3CCN(c4c(F)cc5c(=O)c(C(=O)O)cn(C6CC6)c5c4OC)CC3)c(=O)oc2c1`, the MIC in series [3] was 0.25 µg/mL (≈ 0.433 µM). Further, the Ratio in series [4], in series [5], in series [6] and in [7] was 2 - 8 throughout.
In turn, `O=C(N/N=C/c1ccc([N+](=O)[O-])cc1)c1cc2ccccc2oc1=O` displayed an MIC in series [2] of 50 to 100 µg/mL (≈ 148 to 296 µM).
Take `N#Cc1ccc(Nc2nc(Oc3cc(=O)oc4ccccc34)nc(N3CCN(c4cccc(C(F)(F)F)c4)CC3)n2)cc1C(F)(F)F`: the MIC was greater than 6.25 µg/mL in series [8] and 100 to 1000 µg/mL (≈ 153 to 1530 µM) in [9].
Compound `Cc1ccc2oc(=O)c3c(O)c4cccc(O[C@@H]5O[C@H](C)[C@@H](O)[C@H](O)[C@H]5O[C@@H]5O[C@@H](C)[C@@H](O)[C@@H](O)[C@@H]5O)c4c4oc(=O)c1c2c34` yielded an MIC against Mycolicibacterium vaccae of 1.22 µM (≈ 0.764 µg/mL).
The compound `COc1cccc(/C=N/NC(=O)c2cc3ccccc3oc2=O)c1` showed an MIC in [2] of 50 to 100 µg/mL (≈ 155 to 310 µM).
`Cc1cc2oc(=O)c(C(c3cccs3)c3c(O)c4cc(C)c(C)cc4oc3=O)c(C)c2cc1C` (stereo unspecified) yielded a minimum inhibitory concentration (MIC) in [10] of 5.22 µM (≈ 2.47 µg/mL).
As to `O=c1oc2ccccc2cc1-c1cn2nc(C(F)(F)F)sc2n1`, the MIC in [11] is 40 µg/mL (≈ 119 µM).
Compound `O=C(N/N=C/c1ccc(O)cc1O)c1cc2ccccc2oc1=O` registered an MIC in [2] of 50 to 100 µg/mL (≈ 154 to 308 µM).
For the compound `N#Cc1ccc(Nc2nc(Oc3cc(=O)oc4ccccc34)nc(N3CCN(c4ccccc4F)CC3)n2)cc1C(F)(F)F`, the MIC in [8] was greater than 6.25 µg/mL; in series [9], 100 to 1000 µg/mL (≈ 166 to 1660 µM).
As for `Cn1c(=O)cc(Oc2nc(Nc3ccc(C#N)c(C(F)(F)F)c3)nc(N3CCN(c4ccc(F)cc4)CC3)n2)c2ccccc21`, the MIC in series [8] is greater than 6.25 µg/mL; in [9], 100 to 1000 µg/mL (≈ 162 to 1620 µM).
Take `COc1ccc(/C=N/NC(=O)c2cc3ccccc3oc2=O)cc1`: the MIC in series [2] lay within 50 to 100 µg/mL (≈ 155 to 310 µM).
On the same count and under the same terms, next, `O=C(N/N=C/c1cccc(Cl)c1)c1cc2ccccc2oc1=O`: 50 to 100 µg/mL (≈ 153 to 306 µM).
Regarding `COc1ccc(-c2cc(-c3ccc(O)cc3)nc(/N=c3\ccc4ccccc4o3)n2)cc1`, the MIC in [12] is 9.6 to 240 µg/mL (≈ 22.8 to 569 µM). In addition, the inhibition of growth at 6.25 µg/mL in series [13] is 37%.
Compound `O=C(N/N=C/c1ccc(O)cc1)c1cc2ccccc2oc1=O` gave an MIC in series [2] of 50 to 100 µg/mL (≈ 162 to 324 µM).
On to `N#Cc1ccc(Nc2nc(Oc3cc(=O)oc4ccccc34)nc(N3CCN(c4ccc(F)cc4)CC3)n2)cc1C(F)(F)F`, for which the MIC in [8] is greater than 6.25 µg/mL; in series [9], 100 to 1000 µg/mL (≈ 166 to 1660 µM).
For `Cn1c(=O)cc(Oc2nc(Nc3ccc(C#N)c(C(F)(F)F)c3)nc(N3CCN(c4cccc(C(F)(F)F)c4)CC3)n2)c2ccccc21`, in that order: greater than 6.25 µg/mL and 100 to 1000 µg/mL (≈ 150 to 1500 µM).
On to `N#Cc1ccc(Nc2nc(Oc3cc(=O)oc4ccccc34)nc(N3CCN(c4ccc(C(F)(F)F)cc4)CC3)n2)cc1C(F)(F)F`, for which the MIC is greater than 6.25 µg/mL in [8] and 100 to 1000 µg/mL (≈ 153 to 1530 µM) in series [9].
As for `COc1ccc(-c2cc(-c3ccc([N+](=O)[O-])cc3)nc(/N=c3\ccc4ccccc4o3)n2)cc1`, the MIC in series [12] was 9.6 to 240 µg/mL (≈ 21.3 to 533 µM). For the same compound, the inhibition of growth at 6.25 µg/mL in series [13] amounted to 65%.
Take `Cn1c(=O)cc(Oc2nc(Nc3ccc(C#N)c(C(F)(F)F)c3)nc(N3CCN(c4ccc(C(F)(F)F)cc4)CC3)n2)c2ccccc21`: the MIC in series [8] was greater than 6.25 µg/mL; in series [9], 100 to 1000 µg/mL (≈ 150 to 1500 µM).
For `Cn1c(=O)cc(Oc2nc(Nc3ccc(C#N)c(C(F)(F)F)c3)nc(N3CCN(c4ccccc4F)CC3)n2)c2ccccc21`, the MIC was greater than 6.25 µg/mL in series [8] and 100 to 1000 µg/mL (≈ 162 to 1620 µM) in series [9].
As for `O=c1oc2ccccc2cc1C(c1cccs1)c1c(O)c2ccccc2oc1=O` (stereo unspecified), 5.22 µM (≈ 2.1 µg/mL) was the least that counted as inhibitory in series [10] (MIC).
`Oc1ccc(-c2cc(-c3ccc(Cl)cc3)nc(/N=c3\ccc4ccccc4o3)n2)cc1` came in with an MIC in [12] of 9.6 to 240 µg/mL (≈ 22.5 to 564 µM). The inhibition of growth at 6.25 µg/mL in [13] was determined as 70%.
`CCCc1cc(=O)oc2c3c(c4c(c12)OC(C)(C)C=C4)O[C@H](C)[C@@H](C)[C@@H]3O` [CALANOLIDE A] had an MIC in [14] of 3.13 µg/mL (≈ 8.45 µM).
`NC(=O)c1cnccn1` [PYRAZINAMIDE] registered an MIC in [2] greater than 100 µg/mL.
In series [15], `C[C@H]1[C@H](C)Oc2c3c(c4c(-c5ccccc5)cc(=O)oc4c2[C@H]1O)OC(C)(C)C=C3` [SOULATTROLIDE] registered an MIC99 of 3.13 µg/mL (≈ 7.74 µM). For the same compound, the CC50 in [16] was greater than 10 µg/mL. Besides, in series [17], the selectivity ratio is greater than 3.2.

The values above are taken from ChEMBL document CHEMBL4138081, “Recent developments of coumarin-containing derivatives and their anti-tubercular activity” (Eur J Med Chem, 2017).
